Patent publication US10495627B2, “Apparatus and method for early diagnosis of cell death” (LYNCEE TEC S.A., priority 2010, dated 2019)
Entries after “also recorded” stand apart in the source; their conditions may differ.

Assays:
[1] = tested on: primary cultures of mouse cortical neurons; assay: Mean phase value on cell bodies monitored over time by digital holographic microscopy (DHM) after glutamate-induced excitotoxic stimulation; assay type: cell-based
Description: The particular implementation is a transmission DHM setup making possible to monitor cells in time through phase measurement. The sketch of the optical arrangement of the measurement setup is shown in FIG. 3, where the light emitted by a light source is split into two beams and recombined to generate an interference producing a hologram on the camera. […] Phase images are reconstructed by a numerical method for off-axis digital hologram reconstruction.
In the different experiments described below, the optical property, employed for cell death detection is the mean phase value measured on cell bodies and monitored during time. The phase value is intrinsically a relative measurement that has to be compared with a phase reference, usually taken as the phase shift induced by the perfusion medium. Physically, the phase value φ can thus be related to an optical path length (OPL) as
[formula] where the indices i and m correspond respectively to the intracellular content of the cell and to the perfusion medium, h is the height of the cell at position (x, y) and n is the mean refractive index (RI) along the optical axis. The phase is measured by calculating a spatial averaging of the phase value on a constant surface contained in the cell body, to which a reference phase value measured on a zone of the field of view containing no biological material has been subtracted.
The meaning of the phase measured with an interferometric method in this context is dependent on the height of the cell and on its intracellular RI. Therefore, the phase is linked both to the cell volume phenotype (through cell height), and to the intracellular content of cells phenotype (through RI), and thus indirectly to the osmotic regulation of the cell. The phase signal is therefore an indicator of cell volume regulation through both parameters, and can be indirectly linked to homeostasis through osmotic phenomena.
This particular study is performed on primary cultures of mouse cortical neurons, mounted on coverslips for optical measurement. Before experiment, coverslips are mounted on a perfusion chamber used to apply the different solutions to the cells, which are immersed in a HEPES-buffered standard physiological perfusion medium. As an example of application of cell death detection through volume regulation, we present in the following a detection of neuronal death induced through glutamate-induced excitotoxic stimulation, ultimately leading to cell death. The glutamate is a neurotransmitter activating neuronal receptors, leading under strong exposure to high level of intracellular calcium concentration, which can lead to death pathway triggering if not regulated properly.
(§1) In order to validate the measurement principle proposed in this application, the cell viability is also tested with trypan blue 0.4% reagent, to enable comparative measurements. The dye relies on probing the cell membrane integrity, which becomes permeable to the color compound at a certain level after cell death mechanisms started. After reagent wash-out, the cell nuclei of non-viable cells are consequently stained in blue, as the dye fixes on DNA material. Excitotoxic effects were studied during the experiments, by applying glutamate pulses at different concentration to the cells. The excitation solutions were prepared with concentrations ranging between 25 μM and 100 μM, depending on the type of experiment. Perfusion changes were performed by washing the chamber with a micropipette, making it possible to replace the perfusion medium through typically two washes of the medium.
The mean phase value measured on four cell bodies is shown in FIG. 4(a), where the reagent has been applied several times on the culture with an interval of approximately one hour. […]

[2] = tested on: primary cultures of mouse cortical neurons; assay: Cell viability tested with trypan blue 0.4% reagent after glutamate stimulation; assay type: cell-based; conditions: for trypan blue staining / time at which nucleus was stained by trypan blue (cell death): 90 seconds; for time at which cell death was confirmed with trypan blue: 120 seconds
Description: as §1
In order to enable color measurement for cell viability assessment with the reagent, a flip mirror is inserted after the MO, so that the intensity image could also be recorded in focus with a color camera. When performing trypan blue staining, the illumination is changed to employ an incoherent halogen white light source to enable color measurement; this implies that during dye probing, no DHM measurement is performed, yielding part of unmeasured phase signal during time monitoring. Image merging between the two measurement techniques could be done through calibration of the system by imaging an object whose shape is well-known.
Brightfield color images of the culture, enabling the assessment through the trypan blue dye as a control experiment, are presented in FIGS. 4(b-c), respectively at t=30 min before the excitotoxic stimulation and t=290 min, where non viable cells are identified by the blue staining.

[3] = glutamate 50 μM during 90 seconds, cell 4

With `N[C@@H](CCC(=O)O)C(=O)O` [glutamate] as the compound, how does the phase variations [1, 3] read?
The phase variations was “below 10 °”.

What about the “time to retrieve the same mean phase value” [1, 3] of the same compound?
The value was “approximately 10 minutes”.

What about the phase signal drop ([1]; glutamate 50 μM during 90 seconds, three of four cells (cells 1 to 3)) of the same compound?
Its phase signal drop is “approximately 40 °”.

What about the phase response ([1]; glutamate pulse 25 μM, 90 seconds, n=10 cells) of the same compound?
The phase response was “reversible responses in phase; also recorded: only recovery curves”.

And the phase response ([1]; glutamate pulse 50 μM, 90 s)?
Its phase response is “mixed responses between recovery and death”.

What about the phase response ([1]; glutamate pulse 50 μM, 120 s) of the same compound?
The phase response was “irreversible signals”.

What about the trypan blue staining ([2]; glutamate 25 μM, up to 4 hours and 30 minutes after stimulation) of the same compound?
The trypan blue staining was “all cells being unstained”.

What about the “time at which nucleus was stained by trypan blue (cell death)” value (from here on “time at which nucleus was stained”) ([2]; glutamate 50 μM, cell 1) of the same compound?
Its value is 116 min.

What about the “time at which nucleus was stained” value ([2]; glutamate 50 μM, cell 2) of the same compound?
Its value is 207 min.

What about the “time at which nucleus was stained” value ([2]; glutamate 50 μM, cell 3) of the same compound?
Its value is 252 min.

What about the trypan blue staining ([2]; glutamate 50 μM, cell 4, several hours after exposure) of the same compound?
The trypan blue staining was “remained unstained with a healthy morphology”.

And the “time at which cell death was confirmed with trypan blue” value ([2]; glutamate 50 μM, cell 3)?
The value was 385 min.

And the “time at which cell death was confirmed with trypan blue” value ([2]; glutamate 50 μM, cells 1 and 2)?
The value was 323 min.
